Broadly, the IC50 is the concentration that gives 50% inhibition. As usually defined, the inhibition is how much of the control response was suppressed.

From patent US20090137664A1, “SAURURUS CERNUUS COMPOUNDS THAT INHIBIT CELLULAR RESPONSES TO HYPOXIA” (priority 2003, published 2009) come the findings set out here.

Read-outs that look alike come from different tables or passages of the source.

Series [1] in a line: T47D cell viability / cytotoxicity. The format is cell-based, human. As to conditions: human; 100 μM; read-out: reduction of T47D cell viability.
In series [2] the test system is HIF-1. Nature of the series: pTK-HRE3-luc reporter assay, hypoxia-induced HIF-1 activation in T47D cells. In general terms: Reporter assays use an easily measured gene product as a stand-in for the process of interest.
For series [3], the system named is secreted VEGF protein. As to the kind of experiment: hypoxic induction of secreted VEGF protein in T47D cells (ELISA). It is filed as cell-based, human. As to conditions: for concentration at which hypoxic induction of secreted VEGF protein is completely blocked / inhibition of VEGF protein levels relative to the hypoxia-induced positive control: 12-well; for inhibition of VEGF protein levels relative to the hypoxia-induced positive control: p<0.01; for reduction of secreted VEGF protein induced by hypoxia: 96-well, 1 at 100 nM, 2 at 10 nM, PD98059 at 100 μM. How it is done:
(§1) The effects of compounds 1 and 2 on hypoxic induction of secreted VEGF protein are examined in T47D cells. Exponentially grown T47D cells are plated at the density of 30,000 cells/well into 96-well plates. Compound treatment and hypoxic exposure are the same as described. Following incubation, the concentration of secreted VEGF protein in the conditioned media is determined by ELISA (R & D Systems) and the data normalized by the number of viable cells. Results shown in FIG. 4 are averages from a representative experiment performed in quadruplicate, the bars represent standard error. An asterisk (*) indicates the level of significance (p<0.01) relative to the hypoxic control, two asterisks (**) (p<0.0001), and no asterisk indicates no statistical difference (ANOVA and Fisher's PLSD post hoc test).
As discussed earlier, one important HIF-1 target gene is VEGF, a key factor for tumor angiogenesis. Compounds that can inhibit both HIF-1 activation and the production of secreted VEGF protein represent potential efficacious chemotherapeutic agents that inhibit both tumor survival and hypoxia induced angiogenesis. The effects of four active examples (compounds 2, 3, 4, and 5) on hypoxic induction of secreted VEGF protein are examined in T47D cells and the data are presented in FIG. 9. Exponentially grown T47D cells are plated at the density of 356,000 cells/well into 12-well plates. Compound treatment and hypoxic exposure are the same as described. Following incubation, the concentration of secreted VEGF protein in the conditioned media is determined by ELISA (R & D Systems) and the data normalized by the number of viable cells. […] Hypoxic exposure leads to a 2-fold increase in the level of secreted VEGF protein. […] The level of significance (p<0.01) is determined by ANOVA and Fisher's PLSD post hoc test. The exemplary compounds 2, 3, and 4 all completely block hypoxic induction of secreted VEGF protein at concentrations as low as 10 nM. The exemplary compound 5 inhibits the hypoxic induction by 60% at 10 nM, and completely blocks at 100 nM. When tested at 100 nM, none of the compounds interfere with the ELISA assay using VEGF standard (no greater than 15% difference).
On the technique in general: An ELISA detects its analyte on a solid surface through an enzyme-linked reagent.

The test system of series [4] is secreted VEGF protein. As to the kind of experiment: induction of secreted VEGF protein by 1,10-phenanthroline in T47D cells (ELISA). It is filed as cell-based, human. As to conditions: 10 μM, 16 hr. The protocol: Cell plating and compound treatment is similar to those described earlier for hypoxic conditions. […] At the end of the incubation, the concentration of secreted VEGF protein in the conditioned media is determined by ELISA and the data normalized by the number of viable cells.

For series [5], the system named is HIF-1β protein. Nature of the series: Western blot, HIF-1β protein in T47D nuclear extract. It is filed as cell-based, human. The protocol:
Due to the low abundance of HIF-1α protein in whole cell extract, nuclear extract is prepared and the level of HIF-1α protein in the nuclear extract determined by Western blot. Briefly, exponentially grown T47D cells are exposed to compound 2 for 30 minutes. […] Nuclear extracts are prepared from control and treated cells, separated on a SDS/PAGE gel, the separated proteins transferred to a nitrocellulose membrane, incubated with the primary antibodies (anti-HIF-1α, and anti-HIF-1β monoclonal antibodies, Novus Biologicals), secondary antibody biotinylated anti-mouse immunoglobulin G and Vectastain ABC reagent (Vector Laboratories), and developed using ECL reagents (Amersham Biosciences). […] No change in HIF-1β protein level is observed across the treatments. It is reasonable to conclude that the selectivity of compound 2 towards hypoxia-activated HIF-1 is caused by selective blockade of the hypoxic induction of HIF-1 protein.

The test system of series [6] is HIF-1. Nature of the series: pTK-HRE3-luc reporter assay, 1,10-phenanthroline-induced HIF-1 activation in T47D cells. It is filed as cell-based. As to conditions: Homo sapiens, read-out: inhibition of HIF-1 activation by 1,10-phenanthroline, 1 μM. From the text: Iron chelators and transition metals (such as cobalt and nickel) can activate HIF-1 and have been used as chemical hypoxia mimetics. […] The expression of the HIF-1α subunit quantitatively determines HIF-1 biological activity (activation of transcription).

Series [7] relates to pGL3 Control. Nature of the series: luciferase expression from control plasmid pGL3 Control. The format is cell-based, human. How it is done: The chemical structures of active compounds 1 and 2 are shown above. Compound 2 is the known compound manassantin B and 1 is a novel compound of the present invention. […] Similar results are obtained from separate experiments. The IC50 is 3 nM for 2 and 30 nM for 1. Complete inhibition is observed at 10 nM for 2 and 100 nM for 1.

The target in series [8] is T1, recombinant VEGF protein standard (Homo sapiens, UniProt P15692).
T1 construct: purchased R & D Systems
T1 sequence (P15692 27-191 isoform P15692-4): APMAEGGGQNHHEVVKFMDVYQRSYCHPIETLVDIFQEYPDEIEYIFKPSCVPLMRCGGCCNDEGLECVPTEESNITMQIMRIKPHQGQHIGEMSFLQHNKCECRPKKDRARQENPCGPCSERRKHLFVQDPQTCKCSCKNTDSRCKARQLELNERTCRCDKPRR
Nature of the series: interference with the VEGF ELISA using VEGF standard. The protocol:
as §1
As discussed earlier, one important HIF-1 target gene is VEGF, a key factor for tumor angiogenesis. Compounds that can inhibit both HIF-1 activation and the production of secreted VEGF protein represent potential efficacious chemotherapeutic agents that inhibit both tumor survival and hypoxia induced angiogenesis. […] Following incubation, the concentration of secreted VEGF protein in the conditioned media is determined by ELISA (R & D Systems) and the data normalized by the number of viable cells. […] The level of significance (p<0.01) is determined by ANOVA and Fisher's PLSD post hoc test. […]

The test system of series [9] is T47D cells. Nature of the series: T47D cell viability / cytotoxicity. It is filed as cell-based, human.

Take `O=c1c(-c2ccc(O)cc2)coc2cc(O)cc(O)c12` [genistein, reference compound]: the cytotoxicity at 100 μM in [1] worked out at 50%. Moreover, the “concentration for 70% inhibition of hypoxic activation of HIF-1” value in series [2] came to 10 µM. Further, the IC50 in [2] (Homo sapiens, T47D, 16 h, read-out: IC50 for inhibition of hypoxia-induced HIF-1 activation) turned out to be 1000 nM.

As for `COc1ccc(C(O)C(C)Oc2ccc(C3OC(c4ccc(OC(C)C(O)c5ccc(OC)c(OC)c5)c(OC)c4)C(C)C3C)cc2OC)cc1OC` (stereo not drawn) [Compound 3], in [3], the “concentration at which hypoxic induction of secreted VEGF protein is completely blocked” value (shortened to “concentration at which hypoxic induction”) turned out to be 10 nM and the “inhibition of VEGF protein levels relative to the hypoxia-induced positive control” value was “significantly inhibit”. The “concentration at which complete inhibition of hypoxic activation of HIF-1 is observed” value in series [2] (T47D, pHRE-luc assay) came out at 10 nM.

Turning to `COc1ccc(C(O)C(C)Oc2ccc(C3OC(c4ccc(OC)c(OC)c4)C(C)C3C)cc2OC)cc1OC` (stereo not drawn) [Compound 5], in [3], the “concentration at which hypoxic induction” value was determined as 100 nM and the “inhibition of VEGF protein levels relative to the hypoxia-induced positive control” value is “significantly inhibit”. In addition, the inhibition at 0.01 µM in series [3] (Homo sapiens, 10 nM) stood at 60%. Besides, the “concentration at which complete inhibition of hypoxic activation of HIF-1 is observed” value in [2] (T47D, pHRE-luc assay) stood at 100 nM.

Take `c1cnc2c(c1)ccc1cccnc12` [1,10-phenanthroline, reference compound]: the “secreted VEGF protein level in T47D cells” value in [4] is “significantly induces”. Besides, the HIF-1β protein level entry in series [5] is given as “no significant effect”.

Consider `COc1cc(C(O)C(C)Oc2ccc(C3OC(c4ccc(OC(C)C(O)c5ccc6c(c5)OCO6)c(OC)c4)C(C)C3C)cc2OC)ccc1O` (stereo not drawn) [Compound 1], for which, in series [6], the inhibition at 1 µM was found to be 45%. Also, the “luciferase expression from the pGL3-Control plasmid” value in series [7] (1,10-phenanthroline experiment (FIG. 5)) is “Neither compound exerts significant effect”. The “luciferase expression from the control plasmid (pGL3 Control)” value in [7] (hypoxia experiment (FIG. 3)) was “No statistically significant difference”. In addition, the “reduction of secreted VEGF protein induced by hypoxia” value in [3] is given as “statistically significant reduction”. Further, in series [8], the “interference with the ELISA assay” value is “neither compound interferes”. The IC50 in series [2] (Homo sapiens, T47D, read-out: IC50, inhibition of hypoxic activation of HIF-1) worked out at 30 nM. The “concentration at which complete inhibition of hypoxic activation of HIF-1 is observed” value in series [2] (T47D, pHRE-luc assay) worked out at 100 nM.

On to `COc1cccc(-c2cc(=O)c3ccccc3o2)c1N` [PD98059, reference compound], for which, in [9], the cytotoxicity entry is “no significant cytotoxicity”. In addition, the “reduction of secreted VEGF protein induced by hypoxia” value in series [3] is “only 1 and 2 treatments lead to statistically significant reduction”. Besides, the “concentration for 70% inhibition of hypoxic activation of HIF-1” value in series [2] came to 10 µM. Also, the “concentration at which hypoxic activation of HIF-1 is completely inhibited” value in series [2] (T47D, pHRE-luc assay) was 100 µM. Further, the IC50 in [2] (read-out: IC50 for inhibition of hypoxia-induced HIF-1 activation, T47D cells, hypoxic conditions 16 hr) came out at 2000 nM.

`COc1ccc(C(O)C(C)Oc2ccc(C3OC(c4ccc(OC(C)C(O)c5ccc6c(c5)OCO6)c(OC)c4)C(C)C3C)cc2OC)cc1OC` (stereo not drawn) [Compound 4]: in series [3], the “concentration at which hypoxic induction” value turned out to be 10 nM and the “inhibition of VEGF protein levels relative to the hypoxia-induced positive control” value was “significantly inhibit”. Also, the “concentration at which complete inhibition of hypoxic activation of HIF-1 is observed” value in series [2] (T47D, pHRE-luc assay) came to 10 nM.
